Results as given in patent US11795163B2, “Compound for inhibiting nicotinamide phosphoribosyltransferase and composition containing same” (CHECKMATE THERAPEUTICS INC., priority 2016, dated 2023).

What was measured:
[1] = tested on: H322; assay: Therapeutic effect of cancer cell line, IC50; type: cell-based; conditions: NCI-H322; H322, NAPRT expression negative
[2] = Microsome stability evaluation; type: in vitro ADME, mouse; conditions: after 30 minutes, 1 μM compound, 0.3 mg/ml microsomal protein, 1 mM NADPH
Experimental: (§1) Metabolic stability was assessed using human liver microsomes and mouse liver microsomes. Specifically, pooled male mouse liver microsomes (in-house preparation per SOP), pooled human liver microsomes (XENOTECH; […] The reaction was stopped by addition of acetonitrile ([…]) containing the same volume of internal standard. The precipitated proteins were removed by centrifugation and the supernatant was analyzed by LC/MS-MS method. […] Residual % parent compound=(peak area at time x/peak area at TO)×100.

[3] = Microsome stability evaluation; type: in vitro ADME, human; conditions: after 30 minutes, 1 μM compound, 0.3 mg/ml microsomal protein, 1 mM NADPH
Experimental: as §1

[4] = tested on: H661; assay: Therapeutic effect of cancer cell line, IC50; type: cell-based; conditions: Homo sapiens, NCI-H661; H661, NAPRT expression negative
[5] = tested on: H1115; assay: Therapeutic effect of cancer cell line, IC50; type: cell-based; conditions: H1115, NAPRT expression negative
[6] = tested on: liver cell (THLE-2); assay: Toxicity assessment in normal cell line, cell viability; type: cell-based; conditions: for IC50: Homo sapiens, THLE-2, FIG. 25
[7] = tested on: retinal pigment epithelium cell (RPE); assay: as above; type: cell-based; conditions: high concentrations
[8] = tested on: liver cell (THLE-3); assay: Toxicity evaluation in normal cell line, cell viability; type: cell-based; conditions: THLE3; THLE-3, FIG. 26
[9] = tested on: Primary cardiomyocyte; assay: Toxicity assessment in normal cell line, cell viability; type: cell-based; conditions: high concentrations
[10] = tested on: H322, H661, H1155, H1993, H1975, H2030, H1299, H2122 and HBEC30; assay: Viability of various cancer cell lines by concentration (NAPRT positive vs negative); type: cell-based

IC50 [1]	Structure (SMILES)	also measured
6.25 µM	COC(=O)c1ccc(CCNC(=O)c2ccc3nccn3c2)cc1 [B1531]	–
12.5 µM	Cc1ccc(-c2nc3cc(NC(=O)c4cccnc4)ccc3o2)cc1C [B1716]	–
12.5 µM	O=C(NCCNC(=O)c1nc(-c2ccc(Cl)cc2)no1)c1cccnc1 [B1856]	–
10 µM	Cc1ccc(-c2noc(C(=O)NCCNC(=O)c3cccnc3)n2)cc1 [B1857]	–
12.5 µM	O=C(NCCNC(=O)c1nc(-c2cccs2)no1)c1cccnc1 [B1863]	–
10 µM	COc1ccc(-c2noc(C(=O)NCCNC(=O)c3cccnc3)n2)cc1 [B1866]	–
10 µM	O=C(NCCNC(=O)c1ccc2ccccc2n1)c1cccnc1 [B1872]	–
5 µM	O=C(NCCNC(=O)c1nc2ccccc2s1)c1cccnc1 [B1873]	–
0.39 µM	O=C(Nc1ccc2c(c1)CN(C(=O)/C=C/c1cccnc1)CC2)c1ccncc1 [B1963]	–
0.2 µM	CC(C)c1cc(C(F)(F)F)n2nc([C@H]3CCN(C(=O)/C=C/c4cccnc4)C3)cc2n1 [B1964]	–
12.5 µM	Cc1nccn1-c1ccc(CNC(=O)c2cccnc2)cc1 [B1967]	–
1.2 µM	O=C(/C=C/c1cccnc1)NCCCN1CCc2ccccc21 [B1975]	–
10 µM	O=C(/C=C/c1cccnc1)N1CCN(Cc2csc(-c3ccco3)n2)CC1 [B1976]	–
6.25 µM	O=C(NCc1ccc(S(=O)(=O)N2CCOCC2)cc1)c1cccnc1 [B1977]	–
1.2 µM	O=C(NCc1ccc(N2CCCCC2)cc1)c1cccnc1 [B1978]	–
0.78 µM	O=C(NCc1ccc(OCc2ccccn2)cc1)c1cccnc1 [B1979]	–
3.1 µM	O=C(NCc1ccc(S(=O)(=O)N2CCCCC2)cc1)c1cccnc1 [B1981]	–
12 µM	CCN(CC)Cc1ccc(CNC(=O)c2cccnc2)cc1 [B1982]	–
0.3 µM	Cn1/c(=N/NC(=O)/C=C/c2cccnc2)sc2ccccc21 [B1983]	–
–	O=C1CC2(CCCC2)CC(=O)N1CCCCN1CCN(c2ncccn2)CC1 [Buspirone, reference compound]	Mouse(%) parent compound remaining [2]: 3.189 ± 1.078%; Human(%) parent compound remaining [3]: 0.101 ± 0.028%
1 µM	CCc1ccc2oc(-c3ccc(CNC(=O)c4cccnc4)cc3)nc2c1 [Drug3, N-(4-(5-ethylbenzo[d]oxazol-2-yl)benzyl)nicotinamide]	IC50 [4]: < 1 µM; IC50 [5]: < 3.1 µM
–	O=C(/C=C/c1cccnc1)NCCCCC1CCN(C(=O)c2ccccc2)CC1 [FK866, N-[4-(1-benzoyl-4-piperidinyl)butyl]-3-(3-pyridinyl)-2E-propenamide]	Mouse(%) parent compound remaining [2]: 10.26 ± 0.91%; Human(%) parent compound remaining [3]: 25.48 ± 1.45%; IC50 [6]: ~0.05 µM; cytotoxicity (cell viability) ([6]; THLE-2, high concentrations): unpredictable cytotoxicity; cytotoxicity (cell viability) [7]: unpredictable cytotoxicity; IC50 [8]: ~0.05 µM; cytotoxicity (cell viability) [9]: unpredictable cytotoxicity; difference in LD50 values between the NAPRT positive cell line and the negative cell line [10]: approximately 10 times
–	O=C(NCc1ccc(S(=O)(=O)c2cc(F)cc(F)c2)cc1)c1ccc2nccn2c1 [GNE617, N-(4-((3,5-difluorophenyl)sulfonyl)benzyl)imidazo[1,2-a]pyridine-6-carboxamide, reference compound]	IC50 [6]: ~0.05 µM; IC50 [8]: ~0.05 µM
